From paper PMC12126322, “Characterisation of the thermophilic P450 CYP116B305 identified using metagenomics-derived sequence data from an Australian hot spring” (Applied Microbiology and Biotechnology, 2025)

Columns and labels:
CYP116B305 [1] = test: Substrate binding by UV-visible difference spectroscopy (KD, heme spin-state shift); design: species or system Geminicoccaceae; conditions: for Kd: difference spectroscopy, CYP116B305 2–4 µM, substrate 0–100 µM; for Spin-state shift (%): low-spin to high-spin heme shift on substrate binding
CYP116B305 [2] = test: NAD(P)H consumption assay (cofactor preference, oxidation rates); type: biochemical, Geminicoccaceae; conditions: for NADH consumption rates / NADPH consumption rates: 33% FMN inclusion, min^−1; for NADH consumption rates (100% FMN rates) / NADPH consumption rates (100% FMN rates): corresponding to full FMN incorporation, approximate maximum; for Km: cofactor oxidation in the presence of 2-HPA, read-out: KM of nicotinamide cofactor
Experimental: The consumption rates were calculated using nonlinear regression (GraphPad Prism), fitting to either the Michaelis–Menten or a quadratic velocity equation to determine the apparent KM and kcat values.

CYP116B305 [3] = test: In vitro catalytic turnovers and coupling efficiency (GC-MS); type: biochemical, Geminicoccaceae; conditions: for Coupling (NADPH): product formed to NADPH consumed
Experimental: The reaction mixtures contained CYP116B305 (1 µM) in KPi buffer (50 mM, pH 7.4), catalase (1 µM), substrate (600 µM), and NAD(P)H (1.2 mM). Reactions were conducted at both room temperature (25 °C) and elevated temperature (45 °C) under constant stirring for 1 h. A control reaction, omitting the P450 enzyme, was also performed. Post-incubation, reaction mixtures were acidified to pH 0–2 with HCl (except for 4-methoxyacetophenone assays), followed by extraction with ethyl acetate (3 × 1 mL). The combined organic phases were dried over magnesium sulphate and concentrated to 100 µL under a stream of nitrogen gas. Concentrated samples were derivatised with N,O-bis(trimethylsilyl)trifluoroacetamide (BSTFA-TMS) before being analysed by gas chromatography–mass spectrometry (GC–MS; Zebron ZB-5MS column 30 m × 0.25 mm × 0.25 µm). The method was 50 °C for 5 min followed by increments of 16 °C min^−1 until 250 °C was reached, then held for 5 min.
For coupling efficiency analysis, the NAD(P)H concentration was reduced to 200 µM, and an internal standard (100 µM) was added to the reactions prior to acidification and extraction. […] In the case of 4-methoxyacetophenone, the reactions were stirred for 2 h, and product formation (4-hydroxyacetophenone) was then quantified using a standard curve generated from 4-hydroxyacetophenone (0.05–1 mM) and an internal standard (fluorene; 100 µM).

CYP116B305 [4] = test: Cytochrome c reduction assay with NADPH as electron donor; type: biochemical, Geminicoccaceae; conditions: cytochrome c as artificial electron acceptor
Experimental: Similarly, a cytochrome c reduction assay was also performed to derive the kinetic parameters, following established protocols (Guengerich et al. [2009]; Tavanti et al. [2018b]). Reactions contained cytochrome c (equine heart, Sigma-Aldrich, 50 µM), CYP116B305 (200 nM), catalase (1 µM), and varying concentrations of NADPH (0.5–200 µM). Cytochrome c reduction was monitored as described above, and nonlinear regression analysis (GraphPad Prism) was utilised to determine the KM and kcat values.

[5] = in the presence of 2-HPA, 25 °C

O=C(O)Cc1ccc(O)cc1 [4-Hydroxyphenylacetic acid]
Kd (CYP116B305 [1]): 65 ± 13 µM | Spin-state shift (%) (CYP116B305 [1]): 17 ± 1% | Spin-state shift (%) (CYP116B305 [1]; listed as 4-hydroxyphenylacetic acid): 17 ± 1%

COc1ccc(C(C)=O)cc1 [4-Methoxyacetophenone]
NADH consumption rates (CYP116B305 [2]; 25 °C): 2 ± 1 µM (µM^−1 P450) min^−1 | NADH consumption rates (100% FMN rates) (CYP116B305 [2]; 25 °C): ~6 µM (µM^−1 P450) min^−1 | NADH consumption rates (CYP116B305 [2]; 45 °C): 3 ± 1 µM (µM^−1 P450) min^−1 | NADPH consumption rates (CYP116B305 [2]; 45 °C): 1 ± 1 µM (µM^−1 P450) min^−1 | NADH consumption rates (100% FMN rates) (CYP116B305 [2]; 45 °C): ~9 µM (µM^−1 P450) min^−1 | NADPH consumption rates (100% FMN rates) (CYP116B305 [2]; 45 °C): ~3 µM (µM^−1 P450) min^−1 | Kd (CYP116B305 [1]): 73 ± 6 µM | Spin-state shift (%) (CYP116B305 [1]): 26 ± 3% | Spin-state shift (%) (CYP116B305 [1]; listed as 4-methoxyacetophenone): 26 ± 3% | product formation with NADH as electron donor (CYP116B305 [3]; 4-hydroxyacetophenone product, NADH): no product was observed | Coupling (NADPH) (CYP116B305 [3]; 25 °C): n.q | Coupling (NADPH) (CYP116B305 [3]; 45 °C, listed as 4-Methoxy acetophenone): 24 ± 5% | Coupling (NADPH) (CYP116B305 [3]; 45 °C, listed as 4-methoxyacetophenone): 24 ± 5%

O=C(O)CCc1ccccc1O [HPPA, 3-(2-hydroxyphenyl)propionic acid]
NADH consumption rates (CYP116B305 [2]; 25 °C): 31 ± 3 µM (µM^−1 P450) min^−1 | NADPH consumption rates (CYP116B305 [2]; 25 °C): 11 ± 1 µM (µM^−1 P450) min^−1 | NADPH consumption rates (100% FMN rates) (CYP116B305 [2]; 25 °C): ~33 µM (µM^−1 P450) min^−1 | fold increase of NADH oxidation rate (CYP116B305 [2]; 45 °C compared to 25 °C): 2.4 fold | fold increase of NADPH oxidation rate (CYP116B305 [2]; 45 °C compared to 25 °C): sixfold | NADH consumption rates (CYP116B305 [2]; 45 °C): 73 ± 2 µM (µM^−1 P450) min^−1 | NADPH consumption rates (CYP116B305 [2]; 45 °C): 65 ± 3 µM (µM^−1 P450) min^−1 | NADH consumption rates (100% FMN rates) (CYP116B305 [2]; 45 °C): ~221 µM (µM^−1 P450) min^−1 | NADPH consumption rates (100% FMN rates) (CYP116B305 [2]; 45 °C): ~196 µM (µM^−1 P450) min^−1 | Kd (CYP116B305 [1]): 0.4 ± 0.2 µM | Spin-state shift (%) (CYP116B305 [1]): 90 ± 5% | Spin-state shift (%) (CYP116B305 [1]; listed as 3-(2-Hydroxyphenyl)propionic acid (HPPA)): 90 ± 5% | Coupling (NADPH) (CYP116B305 [3]; 25 °C): 15 ± 2% | Coupling (NADH) (CYP116B305 [3]; 45 °C, product formed to NADH consumed): 15 ± 9% | Coupling (NADPH) (CYP116B305 [3]; 45 °C): 26 ± 1%

NC(=O)C1=CN([C@@H]2O[C@H](COP(=O)(O)OP(=O)(O)OC[C@H]3O[C@@H](n4cnc5c(N)ncnc54)[C@H](O)[C@@H]3O)[C@@H](O)[C@H]2O)C=CC1 [NADH, reference compound]
Km (CYP116B305 [2]; 25 °C): 60 ± 15 µM | kcat of nicotinamide cofactor oxidation (CYP116B305 [2]; [5]): 0.65 ± 0.067 s⁻¹

NC(=O)C1=CN([C@@H]2O[C@H](COP(=O)(O)OP(=O)(O)OC[C@H]3O[C@@H](n4cnc5c(N)ncnc54)[C@H](OP(=O)(O)O)[C@@H]3O)[C@@H](O)[C@H]2O)C=CC1 [NADPH, reference compound]
Km (CYP116B305 [2]; 25 °C): 4.1 ± 0.3 µM | fold lower KM compared to NADH (CYP116B305 [2]; [5]): 15 fold | kcat of nicotinamide cofactor oxidation (CYP116B305 [2]; [5]): 0.217 ± 0.017 s⁻¹ | Km (CYP116B305 [4]): 1.2 ± 0.1 µM | kcat for NADPH (CYP116B305 [4]): 0.0683 ± 0.0017 s⁻¹

O=C(O)Cc1ccccc1 [Phenylacetic acid]
Kd (CYP116B305 [1]): 39 ± 11 µM | Spin-state shift (%) (CYP116B305 [1]): 34 ± 6% | Spin-state shift (%) (CYP116B305 [1]; listed as phenylacetic acid): 34 ± 6%

O=C(O)c1ccccc1O [Salicylic acid]
Kd (CYP116B305 [1]): 43 ± 6 µM | Spin-state shift (%) (CYP116B305 [1]): 25 ± 2% | Spin-state shift (%) (CYP116B305 [1]; listed as salicylic acid): 25 ± 2%

O=C(O)/C=C/c1ccccc1 [trans-Cinnamic acid]
Kd (CYP116B305 [1]): 61 ± 19 µM | Spin-state shift (%) (CYP116B305 [1]): 13 ± 4% | Spin-state shift (%) (CYP116B305 [1]; listed as trans-cinnamic acid): 13 ± 4%
